{"source": "paper PMC8129133", "about": "“Polymer-free corticosteroid dimer implants for controlled and sustained drug delivery” (Nature Communications, 2021)", "key": {"[1]": {"system": "vascular endothelial growth factor (VEGF) induced blood-retinal barrier breakdown", "experiment": "Rabbit pharmacodynamics, VEGF-induced vascular leakage", "type": "in vivo, Dutch Belted rabbits", "procedure": "Pharmacodynamics. Rabbit pharmacodynamics studies were performed at Absorption Systems California (San Diego, CA, USA). All studies were conducted in compliance with relevant ethical regulations, including the USDA Animal Welfare Act (i.e., relevant sections of Section 9, Part 1, 2, and 3 of the Code of Federal Regulations) and in compliance with Absorption Systems’ Animal Welfare Assurance filed with the National Institutes of Health. Protocols were reviewed and approved by Absorption Systems’ Institutional Animal Care and Use Committee (IACUC) prior to the initiation of procedures. Treatment of animals was in accordance with conditions specified in the Guide for Care and Use of Laboratory Animals (NRC, 2011, National Academy Press). Animals were anesthetized with intramuscular ketamine hydrochloride (15-20 mg/kg) and xylazine (5 mg/kg) prior to test article injection or vascular leakage induction. The eye area was surgically prepped with 5% betadine and rinsing with balanced salt solution, followed by administration of 1–2 drops of topical proparacaine hydrochloride (0.5%). […] Test articles (27 G × 6 mm, 30 G × 6 mm, and 32 G × 6 mm Dex-TEG-Dex extruded rods, or Ozurdex®) were injected intravitreally in Dutch Belted rabbits (male, 1.84–2.49 kg, 5–6 months) on Day 0 and vascular leakage was induced by an intravitreal injection of VEGF (500 ng/eye) at acute and chronic timepoints (1 week, 2.5, 4.5, 6, 9, 12, and/or 18 months) post-implantation. Post-injection analgesia was provided by 0.02-0.05 mg/kg IM/SC buprenorphine. Negative control rabbits received a sham injection while positive control rabbits received a 2 mg solution dose of triamcinolone acetonide (Kenalog-40). Ophthalmic exams, including fundus microscopy and slit lamp microscopy, were carried out over the 3 days post-VEGF induction and vascular leakage was measured by fluorescein angiography on the third day post-VEGF induction. Eyes were graded based on fundus and fluorescein angiography images using a scoring system as follows[76]: 0 – major vessels straight, some tortuosity of smaller vessels, no vessel dilation; 1 – increased tortuosity of major vessels and/or some vessel dilation; 2 – leakage between major vessels, significant vessel dilation; 3 – leakage between major and minor vessels, minor vessels still visible; and 4 – leakage between major and minor vessels, minor vessels poorly/not visible."}, "[2]": {"system": "lipopolysaccharide (LPS)-induced model of uveitis in a rat eye", "experiment": "Rat uveitis model", "type": "in vivo, Brown Norway rats", "conditions": "for Retinal Thickness (µm): single eyes, Fig 7e", "procedure": "Sample preparation. Dex-TEG-Dex was weighed on a stainless steel coupon and transferred to a heat press (Carver Laboratory Press). Once melted, a polytetrafluoroethylene (PTFE) template was placed on the melt and pressure was applied for 2 min. Samples were cooled to room temperature prior to removal from the PTFE mold, yielding implants with 23 G diameter × 1 mm length. Samples were loaded into appropriate-sized needles (23 G), packaged, and sterilized by ethylene oxide gas.\nLPS stimulation and implantation. […] Animals were first sedated in an isoflurane gas chamber before being anaesthetized through an intraperitoneal injection of ketamine (100 mg/kg) and xylazine (10 mg/kg) solution. One day prior to LPS stimulation, eyes were prepared with topical anesthetic eye drops (Alcaine, 0.5%, Alcon) and pupils were dilated with application of one drop of 1% tropicamide (Alcon) on each cornea prior to anesthesia. Implants were then injected with a 23 G needle into the vitreous humor of rat eyes. Negative control animals received a sham injection, while the positive control group received a sham injection as well as Dex eye drops 4× daily (Maxidex 0.1%, Alcon). One day after test article administration, each rat received an intravitreal injection of 100 ng of LPS (LPS Escherichia coli 0111:B4, Sigma Aldrich) to induce inflammation. The inflammatory state of the eyes was monitored by slit-lamp microscopy (Phoenix Anterior Segment Slit Lamp), fundus microscopy (Phoenix Micron IV), and optical coherence tomography (Phoenix image-guided OCT) for 72 h post-LPS injection. Slit-lamp was used to image the anterior structures of the rat eye and to assess changes in vasculature, aqueous humor haze, pupil responsiveness, and presence of cellular infiltrates. Anterior segment OCT (ASOCT) was used to assess signs of inflammation in the anterior chamber through anterior chamber flare, pupillary fibrin occlusions, and presence of inflammatory cells. The ASOCT was used only for qualitative evaluation of the inflammatory state. Posterior segment OCT (PSOCT) was used to capture six (6) images around the optic disc (OD) of each eye and the images were used for retinal thickness, inflammatory cell count, and vitreal haze evaluation. Retinal thickness was measured using ImageJ (v.1.8.0) from four (4) OCT images close to the optic disk. Inflammatory cells were manually quantified from the same OCT images used for retinal thickness measurements."}, "[3]": {"conditions": "rabbit, in vivo", "quoted_text": "Analysis of samples was conducted using a SCIEX API 5000 mass spectrometer (Applied Biosystems/MDS Sciex), Shimadzu LC-20ADXR HPLC pumps, Shimadzu SCL-10A controller, and HTS-PAL autoinjector (CTC Analytics). Chromatography was performed using a Waters X-Bridge C-18 (3.5 µm; 100 × 2.1 mm) column equipped with a Phenomenex KrudKatcher ULTRA HPLC In-Line Filter (Part AF0-8497). The column was held at a temperature of 40 °C, while the autosampler compartment was maintained at 4 °C. Mobile phases consisted of: (A) 95:5 H2O:MeOH with 2 mM Ammonium Acetate (NH4OAc) and (B) 85:10:5 MeOH:H2O:MeCN with 2 mM NH4OAc. A gradient elution profile was employed, following the trend of: (0 min 30% B), (0.50 min 30% B), (2.50 min 65% B), (2.51 min 100% B), (4.50 min 100% B), (4.51 min 30% B), (6.50 min 30% B). Flow was constant at 0.6 mL min^-1 with an injection volume of 10 µL. For MS parameters, the system was operated in positive ion mode with a TurboIonSpray probe monitoring transitions (±0.2 AMU) of m/z 393.2 → 373.2 for Dex and 397.3 → 377.2 for the Dex-d4 deuterated internal standard. Analyst Version 1.4.2 (Applied Biosystems-MDS Sciex) was used for instrument control, data acquisition, and peak integrations, while calculations including peak area ratios, standard curve regressions, sample concentration values, and descriptive statistics were performed with the assistance of the ALIS2004 validated LIMS.\nDex and internal standard (Dex-d4) were extracted from vitreous humor on ice using protein precipitation. Samples were initially centrifuged at approximately 1500 rcf for 5 min to remove any interfering particulates. Stepwise, the protocol for extraction from vitreous humor was to (1) pipette 50 µL of vitreous humor into an extraction tube; (2) add 13 µL H2O and vortex to mix; (3) add 25 µL internal standard spiking solution (100 ng/mL Dex-d4 in a 1:1 solvent of MeOH:H2O); (4) add 25 µL of make-up reagent (1:1 mixture of MeOH:H2O); (5) vortex mix for 5-10 s at a speed setting of 4 or 5; (6) centrifuge at ~60 rcf for 2 min; (7) add 300 µL of 9:1 MeOH:5 mM NH4OAc at pH 7 to precipitate proteins; (8) cap and vortex mix at full speed for 2 min; (9) Centrifuge at approximately 2700 rcf for 5 min; (10) transfer 300 µL of supernatant to a separate tube; (11) vortex the collected supernatant for 30 s at a low to moderate speed; (12) centrifuge at ~1500 rcf for 5 min; (13) store prepared extract at 4 °C until analysis by LC-MS/MS.\nPharmacokinetics. […] Animals were anesthetized with ketamine (up to ~50 mg/kg) and xylazine (up to ~10 mg/kg). Eyes were surgically prepared before intravitreal procedures with 5% betadine and topical anesthetic eye drops (proparacaine hydrochloride, 0.5%). Prior to test article administration, pupils were dilated with topical application of one drop each of 10% phenylephrine and 1% tropicamide on each cornea.\nImplants (30 G × 6 mm Dex-TEG-Dex extruded rods, Ozurdex®) were injected (30 G needle for Dex-TEG-Dex, 22 G needle for Ozurdex®) intravitreally into the eyes of New Zealand White rabbits (female, 1.5–2.5 kg) with terminal timepoints of 1 and 2 weeks and 1, 2, 3, 6, 9, 12, and 14 months. Ocular tissues and plasma were collected at each timepoint and analyzed for Dex by LC/MS/MS. Whole globe eyes were collected into centrifuge tubes and remained frozen for a minimum of 24 h before dissection and tissue collection. During dissection, vitreous humor containing any remaining test article was collected frozen into pre-weighed centrifuge tubes and stored at −80 °C until further processing."}, "[4]": {"experiment": "Tolerability study of intravitreal implants (IOP, IR fundus imaging, histopathology)", "type": "in vivo", "procedure": "Tolerability study. The tolerability study was conducted at Absorption Systems California (San Diego, CA, USA) under the same animal care and ethics guidelines and approval systems as indicated above in the Pharmacodynamics section. […] Animals were anesthetized with intramuscular ketamine hydrochloride (30–32 mg/kg) and xylazine (5–10 mg/kg), with glycopyrrolate (0.01–0.02 mg/kg, intramuscular) administered concurrently. Eyes were prepped with 1–2 drops of topical proparacaine hydrochloride (0.5%). Prior to implant or sham treatment, eyes received one drop of 10% phenylephrine and 1% tropicamide. 5% betadine solution was used to clean the eye and surrounding area. Group 1 underwent a sham injection procedure, while Group 2 and Group 3 were administered 2× and 3× 30 G × 6 mm Dex-TEG-Dex implants via intravitreal injection, respectively. […] IOP measurements were performed on both eyes at baseline and designated timepoints up to 52 weeks thereafter using a pneumotonometer. Eyes received 1–2 drops of topical proparacaine hydrochloride (0.5%) prior to IOP measurements, and measurements were taken at approximately the same time of day (±2 h). Wide angle infrared (IR) imaging was performed at baseline and at designated timepoints using a Heidelberg Spectralis® imaging platform. Prior to imaging, eyes were dilated with 1 drop each of 10% phenylephrine and 1% tropicamide. […] Animals were euthanized via pentobarbital overdose (150 mg/kg, intravenous).\nHistopathology. […] Eyes were then transferred to 70% ethanol. Eyes were embedded in paraffin and sectioned using a microtome. Five sections were generated from each eye and stained with hematoxylin and eosin (H&E). All stained sections were microscopically evaluated by an ACVP veterinary pathologist."}}, "note": "Where “and” joins values, the source holds several entries; their conditions need not be identical. Equal entries are not always repeated.", "data": [{"compound": "C[C@@H]1C[C@H]2[C@@H]3CCC4=CC(=O)C=C[C@]4(C)[C@@]3(F)[C@@H](O)C[C@]2(C)[C@@]1(O)C(=O)COC(=O)OCCOCCOCCOC(=O)OCC(=O)[C@@]1(O)[C@H](C)C[C@H]2[C@@H]3CCC4=CC(=O)C=C[C@]4(C)[C@@]3(F)[C@@H](O)C[C@@]21C", "note": "[Dex-TEG-Dex]", "values": [{"measurement": "efficacy against VEGF-induced changes", "setting": "[1]; 1 week, Dex-TEG-Dex as 30 G × 6 mm implant", "value": "efficacious"}, {"measurement": "duration of efficacy", "setting": "[1]; 27 G × 6 mm implant, all time points tested", "value": "≥ 18", "unit": "months"}, {"measurement": "duration of inhibition of VEGF-induced effects", "setting": "[1]; 32 G × 6 mm implant", "value": "≥ 4.5", "unit": "months"}, {"measurement": "efficacy against VEGF-induced changes", "setting": "[1]; 32 G × 6 mm implant, 6 months", "value": "reduced efficacy"}, {"measurement": "duration of efficacy", "setting": "[1]; Dex-TEG-Dex as 30 G × 6 mm implant, VEGF challenge", "value": "9–12 months"}, {"measurement": "duration of efficacy", "setting": "[1]; Dex-TEG-Dex as 30 G × 6 mm implant, VEGF challenge, listed as dexamethasone dimer", "value": "> 6", "unit": "months"}, {"measurement": "Retinal Thickness (µm)", "setting": "[2]; 0h", "value": "298 µm and 279 µm and 272 µm and 275 µm and 314 µm and 300 µm and 293 µm and 294 µm"}, {"measurement": "Retinal Thickness (µm)", "setting": "[2]; 24h", "value": "300 µm and 269 µm and 279 µm and 286 µm and 296 µm and 289 µm and 292 µm"}, {"measurement": "Retinal Thickness (µm)", "setting": "[2]; 48h", "value": "279 µm and 296 µm and 265 µm and 264 µm and 275 µm and 261 µm and 294 µm and 266 µm"}, {"measurement": "Retinal Thickness (µm)", "setting": "[2]; 72h", "value": "245 µm and 261 µm and 250 µm and 249 µm and 236 µm and 241 µm and 247 µm and 259 µm"}, {"measurement": "Retinal Thickness (µm)", "setting": "[2]; -24h", "value": "244 µm and 248 µm and 257 µm and 251 µm and 238 µm and 240 µm"}, {"measurement": "effect on LPS-induced inflammatory response", "setting": "[2]; intravitreal 23 G implant, 24 h before LPS, cellular infiltrate and retinal thickness by OCT, 72 h", "value": "acutely suppress the LPS-induced inflammatory response"}, {"measurement": "time at which free Dex fell below limits of detection", "setting": "[3]; female, New Zealand White", "value": 14, "unit": "months"}, {"measurement": "levels of dexamethasone in the aqueous humor", "setting": "[3]", "value": "below the limit of quantification for most samples"}, {"measurement": "IR fundus images", "setting": "[4]; two and three implant eyes, baseline and 3, 6, 9, 12 months", "value": "unremarkable"}, {"measurement": "tolerability", "setting": "[4]; two or three 30 G × 6 mm implants intravitreally, 12 months", "value": "well tolerated"}, {"measurement": "histopathology findings", "setting": "[4]; two or three 30 G × 6 mm implants, H&E", "value": "no microscopic or macroscopic findings"}]}]}
